Results taken from PubChem BioAssay (NCI).
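Five concentrations, 48 hours, 96-well plates. TGI is the concentration that stops growth completely.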

What was measured:
Assay in all cases: inhibition of tumour cell growth, NCI panel, 48 h
[1] = tested on: NCI-H23 lung
[2] = tested on: MALME-3M melanoma
[3] = tested on: NCI-H522 lung
[4] = tested on: LOX IMVI melanoma
[5] = tested on: RXF 393 renal
[6] = tested on: HCT-116 colon
[7] = tested on: MDA-MB-231 breast
[8] = tested on: A498 renal
[9] = tested on: NCI/ADR-RES ovarian
[10] = tested on: PC-3 prostate

## O=C1C(Cl)C(c2ccc([N+](=O)[O-])cc2)N1n1cnc2ccccc2c1=O (configuration not stated)
[1]
  TGI: > 100 µM
[2]
  TGI: > 100 µM
[3]
  TGI: > 100 µM
[4]
  TGI: > 100 µM
[5]
  TGI: 72.1 µM
[6]
  TGI: > 100 µM

## COc1cc2c(cc1OC)-c1[nH]c3ccc([N+](=O)[O-])cc3c1CC(=O)N2
[1]
  TGI: > 100 µM
[2]
  TGI: 9.34 µM
[7]
  TGI: > 100 µM
[4]
  TGI: > 100 µM
[8]
  TGI: 8.31 µM
[9]
  TGI: > 100 µM
[5]
  TGI: 4.82 µM
[10]
  TGI: 99.4 µM

## O=C(CSc1nnc(-c2ccc(N=Cc3ccc(Cl)cc3)cc2)o1)Nc1cccc([N+](=O)[O-])c1
[1]
  TGI: > 100 µM
[2]
  TGI: > 100 µM
[3]
  TGI: > 100 µM
[4]
  TGI: > 100 µM
[5]
  TGI: > 100 µM
[6]
  TGI: > 100 µM

## CC(=O)OC12OC(C)(C3C(=O)N(c4ccccc4)C(=O)C31)N(c1ccccc1)C2=O (configuration not stated)
[1]
  TGI: > 100 µM
[2]
  TGI: > 100 µM
[3]
  TGI: > 100 µM
[7]
  TGI: > 100 µM
[4]
  TGI: > 100 µM
[9]
  TGI: > 100 µM
[5]
  TGI: > 100 µM
[6]
  TGI: > 100 µM
[10]
  TGI: > 100 µM

## COc1cccc(/C=N/NC(=O)CN(C)C)c1O
[1]
  TGI: > 100 µM
[2]
  TGI: > 100 µM
[3]
  TGI: > 100 µM
[4]
  TGI: > 100 µM
[8]
  TGI: > 100 µM
[9]
  TGI: > 100 µM
[5]
  TGI: > 100 µM
[6]
  TGI: > 100 µM
[10]
  TGI: > 100 µM

## COC(=O)C1CCCN1C(=O)OC(C)(C)C (configuration not stated)
[1]
  TGI: > 100 µM
[7]
  TGI: > 100 µM
[4]
  TGI: > 100 µM
[9]
  TGI: > 100 µM
[5]
  TGI: > 100 µM
[6]
  TGI: > 100 µM
[10]
  TGI: > 100 µM

## COC(=O)CN(CC1O[C@@H]2OC(C)(C)O[C@@H]2C1NC(C)=O)C(=O)OCc1ccccc1 (some centres not stated)
[3]
  TGI: > 100 µM
[7]
  TGI: > 100 µM
[4]
  TGI: > 100 µM
[8]
  TGI: > 100 µM
[9]
  TGI: > 100 µM
[6]
  TGI: > 100 µM
[10]
  TGI: > 100 µM

## CC(=O)Nc1ccc(C(=O)n2[nH]c(C)c(/C=C3\C(=O)C=Cc4ccccc43)c2=O)cc1
[1]
  TGI: > 100 µM
[2]
  TGI: 59.3 µM
[3]
  TGI: > 100 µM
[4]
  TGI: > 100 µM
[6]
  TGI: > 100 µM

## CCSc1[nH]c(NC(=NC(C)C)NC(=O)c2ccccc2)c(C(N)=O)c1C(N)=O
[1]
  TGI: > 10 µM
[2]
  TGI: > 10 µM
[7]
  TGI: > 10 µM
[4]
  TGI: > 10 µM
[5]
  TGI: > 10 µM
[10]
  TGI: > 10 µM

## COc1cc(CC(=O)c2cc3c(cc2-c2ccccc2)OCO3)cc(OC)c1OC
[1]
  TGI: > 100 µM
[2]
  TGI: > 100 µM
[3]
  TGI: > 100 µM
[4]
  TGI: > 100 µM
[8]
  TGI: > 100 µM
[5]
  TGI: > 100 µM
[6]
  TGI: > 100 µM

## COc1ccc(C=NCCCN=Cc2ccc(OC)cc2O)c(O)c1
[1]
  TGI: > 100 µM
[2]
  TGI: 71.5 µM
[3]
  TGI: > 100 µM
[7]
  TGI: > 100 µM
[8]
  TGI: > 100 µM
[5]
  TGI: > 100 µM
[6]
  TGI: > 100 µM
[10]
  TGI: > 100 µM

## O=C1C(=Cc2ccc([N+](=O)[O-])o2)C(=O)N(CCc2ccccc2)S(=O)(=O)N1CCc1ccccc1
[1]
  TGI: 31.9 µM
[2]
  TGI: 32 µM
[3]
  TGI: 34.5 µM
[4]
  TGI: 35 µM
[5]
  TGI: 34.1 µM
[6]
  TGI: 29.9 µM

## Cc1ccc(S(=O)(=O)NCCCSCCO)cc1
[1]
  TGI: > 100 µM
[3]
  TGI: > 100 µM
[7]
  TGI: > 100 µM
[4]
  TGI: > 100 µM
[8]
  TGI: > 100 µM
[9]
  TGI: > 100 µM
[5]
  TGI: > 100 µM
[6]
  TGI: > 100 µM
[10]
  TGI: > 100 µM

## CCCCc1c2c(nc3c1CCCC3=O)CCCC2
[1]
  TGI: > 100 µM
[2]
  TGI: 98.4 µM
[3]
  TGI: > 100 µM
[4]
  TGI: > 100 µM
[6]
  TGI: > 100 µM

## Cc1cc(N)c2cc(NC(=O)Nc3ccc4nc(C)cc(N)c4c3)ccc2n1
[1]
  TGI: > 100 µM
[2]
  TGI: > 100 µM
[3]
  TGI: > 100 µM
[7]
  TGI: > 100 µM
[4]
  TGI: > 100 µM
[8]
  TGI: > 100 µM
[9]
  TGI: > 100 µM
[6]
  TGI: > 100 µM
[10]
  TGI: > 100 µM

## CC1(C)OC2[C@@H](CO[C@@]3([C@H]4OC(C)(C)O[C@@H]4CO)OC(C)(C)O[C@@H]23)O1 (some centres not stated)
[1]
  TGI: > 100 µM
[2]
  TGI: > 100 µM
[3]
  TGI: > 100 µM
[7]
  TGI: > 100 µM
[4]
  TGI: > 100 µM
[9]
  TGI: > 100 µM
[5]
  TGI: > 100 µM
[6]
  TGI: > 100 µM
[10]
  TGI: > 100 µM

## C[C@]12CCC(=O)C=C1CC[C@@H]1C2CC[C@@]2(C)C1CC[C@@H]2OC(=O)C12OC1CCC2=O (some centres not stated)
[1]
  TGI: 33.6 µM
[2]
  TGI: 33.9 µM
[3]
  TGI: 23.1 µM
[4]
  TGI: 31.1 µM
[8]
  TGI: 35.6 µM
[5]
  TGI: 16.8 µM
[6]
  TGI: 29.2 µM

## CCOC(=O)C(NC(=O)c1ccccc1)(Nc1ccc(S(=O)(=O)Nc2ccc(OC)nn2)cc1)C(F)(F)F (configuration not stated)
[1]
  TGI: > 100 µM
[2]
  TGI: > 100 µM
[3]
  TGI: > 100 µM
[7]
  TGI: > 100 µM
[4]
  TGI: > 100 µM
[9]
  TGI: > 100 µM
[5]
  TGI: > 100 µM
[6]
  TGI: > 100 µM
[10]
  TGI: > 100 µM

## Brc1ccc(C[N+]23CN4CN(CN(C4)C2)C3)cc1
[1]
  TGI: > 100 µM
[2]
  TGI: 71.5 µM
[3]
  TGI: 32.1 µM
[4]
  TGI: 48 µM
[5]
  TGI: 34.6 µM
[6]
  TGI: 79.8 µM

## O=C1NC2OC(CO)C(O)C(O)C2O1 (configuration not stated)
[1]
  TGI: > 100 µM
[2]
  TGI: > 100 µM
[3]
  TGI: > 100 µM
[4]
  TGI: > 100 µM
[8]
  TGI: > 100 µM
[6]
  TGI: > 100 µM

## O=C(c1cccnc1)N1N=C(c2ccc3c(c2)OCO3)CC1(O)c1cc(F)c(Cl)cc1Cl (configuration not stated)
[1]
  TGI: > 100 µM
[2]
  TGI: 54.1 µM
[3]
  TGI: 33.8 µM
[7]
  TGI: 40.5 µM
[4]
  TGI: 30.5 µM
[9]
  TGI: 50.4 µM
[5]
  TGI: 26.1 µM
[6]
  TGI: 31.2 µM
[10]
  TGI: > 100 µM

## CC(C)(CO)NC(=O)c1cccs1
[1]
  TGI: > 100 µM
[2]
  TGI: > 100 µM
[3]
  TGI: > 100 µM
[7]
  TGI: > 100 µM
[4]
  TGI: > 100 µM
[9]
  TGI: > 100 µM
[6]
  TGI: > 100 µM
[10]
  TGI: > 100 µM

## CC(=O)N1CCN(CCCCN2c3ccccc3Sc3cc(N=[N+]=[N-])ccc32)CC1
[1]
  TGI: 30.1 µM
[2]
  TGI: 33 µM
[3]
  TGI: 26.3 µM
[7]
  TGI: 26.7 µM
[4]
  TGI: 30.9 µM
[9]
  TGI: 27.4 µM
[5]
  TGI: 24.4 µM
[6]
  TGI: 26.7 µM
[10]
  TGI: 20 µM

## COc1ccc(C2NC3=C(CCCC3)N2)cc1
[1]
  TGI: > 100 µM
[2]
  TGI: > 100 µM
[3]
  TGI: > 100 µM
[4]
  TGI: > 100 µM
[8]
  TGI: > 100 µM
[6]
  TGI: > 100 µM

## CC1=C(C(=O)NCCCN(CCO)CCO)CC(C(=O)NCCCN(CCO)CCO)=C(C)N1
[1]
  TGI: > 100 µM
[3]
  TGI: > 100 µM
[7]
  TGI: > 100 µM
[4]
  TGI: > 100 µM
[8]
  TGI: > 100 µM
[9]
  TGI: > 100 µM
[5]
  TGI: > 100 µM
[6]
  TGI: > 100 µM
[10]
  TGI: > 100 µM

## COc1cc(C(=O)N(C(=O)N2CCCCC2)c2ccccc2)cc(OC)c1OC
[1]
  TGI: > 100 µM
[7]
  TGI: > 100 µM
[4]
  TGI: > 100 µM
[8]
  TGI: > 100 µM
[9]
  TGI: > 100 µM
[6]
  TGI: > 100 µM
[10]
  TGI: > 100 µM
